Measurements: US20240018146A1, “COMPOSITIONS AND METHODS OF USING THE SAME FOR TREATMENT OF NEURODEGENERATIVE AND MITOCHONDRIAL DISEASE” (MITOKININ, INC., priority 2020, published 2024)
Where two headings read alike, the source gives them in different places.

Columns and labels:
HeLa MKYP cells [1] = experiment: Cell death measured by DAPI staining, with 1 μM FCCP/oligomycin or no toxin (no FO); type: cell-based
Procedure: EP-0035985, EP-0037821, EP-0038098, and EP-0038099 in the presence of 1 μM FCCP/oligomycin or with no toxin (no FO) for 6 hrs. H2O2 treatment was performed as a control for cell death as measured by DAPI staining.
EP-0035985, EP-0038461, EP-0038463, and EP-0038503 in the presence of 1 μM FCCP/oligomycin or with no toxin (no FO) for 6.5 hrs. H2O2 treatment was performed as a control for cell death as measured by DAPI staining.
EP-0035985, EP-0038504, EP-0038508, and EP-0038521 in the presence of 1 μM FCCP/oligomycin or with no toxin (no FO) for 6.5 hrs. H2O2 treatment was performed as a control for cell death as measured by DAPI staining.
EP-0035985, EP-0038461, EP-0038463, EP-0038503, EP-0038504, EP-0038508, and EP-0038521 in the presence of 1 μM FCCP/oligomycin or with no toxin (no FO) for 6.5 hrs. H2O2 treatment was performed as a control for cell death as measured by DAPI staining.

HeLa MKYP cells [2] = experiment: Human mitophagy assay (HeLa mKeima assay, FACS); type: cell-based; settings: read-out: Mitophagy induction EC50
Procedure: Briefly, HeLa MKYP cells were plated at 10,000 cells/well in 96 well plates along with compounds at various concentrations. Following 16 hrs of incubation, cells were treated with 1 uM FCCP/oligomycin for 6 hours, then analyzed via FACS for the presence of mitochondria in lysosomes (as determined by an emissions spectrum shift from the pH-sensitive mtKeima tag).
Briefly, HeLa cells expressing a mitophagy indicator (mtKeima) protein were treated with […] of FCCP and Oligomycin followed by the specified dose of compound, then analyzed by FACS to quantify the percentage of cells undergoing mitophagy.

Structure (SMILES) | Highest safe dose (cytotoxicity; no FO; safe means DAPI+ <20%) (HeLa MKYP cells [1]) [µM] | Max % death with 1 μM FO (HeLa MKYP cells [1]) [%] | EC50 (HeLa MKYP cells [2]; Homo sapiens, HeLa) [µM] | EC50 (HeLa MKYP cells [2]) [µM]
OC[C@H]1CCN(C2CCc3ccccc3C2Nc2ncnc3[nH]c(C(F)(F)F)cc23)C1 (mixture of isomers) [EP-0040121] | 25.0 | 33.6 | 1.29 | 
Cc1ccc2c(c1)OC[C@H](N1CCOCC1)[C@H]2Nc1ncnc2[nH]c(C(F)(F)F)cc12 (racemic) [EP-0041045] | 25.0 | 7.7 | 1.56 | 
[2H]C([2H])([2H])OC1CN([C@@H]2COc3ccccc3[C@H]2Nc2ncnc3[nH]c(C(F)(F)F)cc23)C1 (racemic) [EP-0041327] | 25.0 | 4.1 | > 25 | 
FC(F)OC1CN([C@H]2COc3ccccc3[C@@H]2Nc2ncnc3[nH]c(C(F)(F)F)cc23)C1 (racemic) [EP-0041354] | 25.0 | 12.4 |  | 1.08
FC(F)OC1CN([C@H]2COc3ccccc3[C@@H]2Nc2ncnc3[nH]c(C(F)(F)F)cc23)C1 (racemic) [EP-0041542] | 25.0 | 3.8 |  | > 25
FC1(F)CN(C2COc3ccccc3C2Nc2ncnc3[nH]c(C4CC4)cc23)C1 (racemic) [EP-0041566] | 25.0 | 30.0 | 1 | 
CC(=O)N1CCN(C2COc3ccccc3C2Nc2ncnc3[nH]c(C4CC4)cc23)CC1 (racemic) [EP-0041596] | 25.0 | 15.3 | 2.72 | 
CN1CCN(C2COc3ccccc3C2Nc2ncnc3[nH]c(C4CC4)cc23)CC1=O (racemic) [EP-0041600] | 25.0 | 4.9 | > 25 | 
FC(F)(F)c1cc2c(N[C@H]3c4ccccc4CC[C@@H]3OCC3CCOCC3)ncnc2[nH]1 (single isomer, unassigned) [EP-0038523] | 25.0 | 3.3 | 4.45 | 
OC[C@@H]1CCCN1[C@H]1CCc2ccccc2[C@@H]1Nc1ncnc2[nH]c(C(F)(F)F)cc12 (single isomer, unassigned) [EP-0039732] | 25.0 | 6.2 | > 25 | 
FC(F)(F)c1cc2c(N[C@H]3c4ccccc4CC[C@H]3OC3CCOCC3)ncnc2[nH]1 (single isomer, unassigned) [EP-0039733] | 25.0 | 3.1 | 9.33 | 
c1ccc2c(c1)OC[C@@H](N1CCOCC1)[C@@H]2Nc1ncnc2[nH]c(C3CC3)cc12 (single isomer, unassigned) [EP-0040181] | 25.0 | 5.9 | > 25 | 
C[C@H]1COCCN1[C@@H]1CCc2ccccc2[C@H]1Nc1ncnc2[nH]c(C(F)(F)F)cc12 (single isomer, unassigned) [EP-0040182] | 25.0 | 26.8 |  | 21.2
C[C@H]1COCCN1[C@@H]1CCc2ccccc2[C@H]1Nc1ncnc2[nH]c(C(F)(F)F)cc12 (single isomer, unassigned) [EP-0040193] | 25.0 | 29.7 |  | 9.46
C[C@@H]1COCCN1[C@@H]1CCc2ccccc2[C@H]1Nc1ncnc2[nH]c(C(F)(F)F)cc12 (single isomer, unassigned) [EP-0040195] | 25.0 | 12.0 | 18.5 | 
C[C@@H]1COCCN1[C@@H]1CCc2ccccc2[C@H]1Nc1ncnc2[nH]c(C(F)(F)F)cc12 (single isomer, unassigned) [EP-0040197] | 25.0 | 8.4 |  | 22.7
c1ccc2c(c1)CC[C@H](N1C[C@H]3COC[C@H]3C1)[C@H]2Nc1ncnc2[nH]c(C3CC3)cc12 (single isomer, unassigned) [EP-0040248] | 25.0 | 3.7 | > 25 | 
c1ccc2c(c1)CC[C@@H](N1C[C@H]3COC[C@H]3C1)[C@@H]2Nc1ncnc2[nH]c(C3CC3)cc12 (single isomer, unassigned) [EP-0040249] | 25.0 | 12.3 | 0.09 | 
FC(F)(F)c1cc2c(N[C@H]3c4ccccc4OC[C@@H]3N3CCOCC3)ncnc2[nH]1 (single isomer, unassigned) [EP-0040251] | 25.0 | 3.1 | > 25 | 
Fc1ccc2c(c1)OC[C@H](N1C[C@H]3COC[C@H]3C1)[C@H]2Nc1ncnc2[nH]c(C(F)(F)F)cc12 (single isomer, unassigned) [EP-0040268] | 25.0 | 3.2 | > 25 | 
Fc1ccc2c(c1)OC[C@H](N1C[C@H]3COC[C@H]3C1)[C@H]2Nc1ncnc2[nH]c(C3CC3)cc12 (single isomer, unassigned) [EP-0040326] | 25.0 | 3.6 |  | > 25
C[C@@H]1COCCN1[C@H]1CCc2ccccc2[C@@H]1Nc1ncnc2[nH]c(C3CC3)cc12 (single isomer, unassigned) [EP-0040339] | 25.0 | 16.5 | > 25 | 
C[C@@H]1COCCN1[C@H]1CCc2ccccc2[C@@H]1Nc1ncnc2[nH]c(C3CC3)cc12 (single isomer, unassigned) [EP-0040358] | 2.8 | 97.8 |  | > 25
c1ccc2c(c1)OC[C@H](N1C[C@H]3COC[C@H]3C1)[C@H]2Nc1ncnc2[nH]c(C3CC3)cc12 (single isomer, unassigned) [EP-0040391] | 25.0 | 3.9 | > 25 | 
C[C@@H]1CN([C@@H]2CCc3ccccc3[C@H]2Nc2ncnc3[nH]c(C(F)(F)F)cc23)CCO1 (single isomer, unassigned) [EP-0040492] | 25.0 | 1.8 | > 25 | 
C[C@@H]1CN([C@@H]2CCc3ccccc3[C@H]2Nc2ncnc3[nH]c(C(F)(F)F)cc23)C[C@H](C)O1 (single isomer, unassigned) [EP-0040494] | 25.0 | 4.1 | > 25 | 
C[C@@H]1CN([C@@H]2CCc3ccccc3[C@H]2Nc2ncnc3[nH]c(C4CC4)cc23)CCO1 (single isomer, unassigned) [EP-0040497] | 25.0 | 4.3 | 6.97 | 
C[C@@H]1CN([C@@H]2CCc3ccccc3[C@H]2Nc2ncnc3[nH]c(C4CC4)cc23)C[C@H](C)O1 (single isomer, unassigned) [EP-0040499] | 25.0 | 4.3 | 5.2 | 
Fc1ccc2c(c1)OC[C@@H](N1CCOCC1)[C@@H]2Nc1ncnc2[nH]c(C3CC3)cc12 (single isomer, unassigned) [EP-0040501] | 25.0 | 5.0 | 14.3 | 
